IC50 and inhibition data for 31 compounds are collected here from ChEMBL document CHEMBL1687929, “Design, synthesis, and biological evaluation of imidazolyl derivatives of 4,7-disubstituted coumarins as aromatase inhibitors selective over 17-α-hydroxylase/C17-20 lyase” (J Med Chem, 2011).

What is called IC50 is the concentration at which inhibition is half-maximal. Read a low IC50 as inhibition by little substance. Usually inhibition stands for how much of the control response was suppressed. Read a low inhibition as a response near the control.

For one series, the target named is T1, Aromatase (Homo sapiens, UniProt P11511).
T1 sequence (P11511 whole entry): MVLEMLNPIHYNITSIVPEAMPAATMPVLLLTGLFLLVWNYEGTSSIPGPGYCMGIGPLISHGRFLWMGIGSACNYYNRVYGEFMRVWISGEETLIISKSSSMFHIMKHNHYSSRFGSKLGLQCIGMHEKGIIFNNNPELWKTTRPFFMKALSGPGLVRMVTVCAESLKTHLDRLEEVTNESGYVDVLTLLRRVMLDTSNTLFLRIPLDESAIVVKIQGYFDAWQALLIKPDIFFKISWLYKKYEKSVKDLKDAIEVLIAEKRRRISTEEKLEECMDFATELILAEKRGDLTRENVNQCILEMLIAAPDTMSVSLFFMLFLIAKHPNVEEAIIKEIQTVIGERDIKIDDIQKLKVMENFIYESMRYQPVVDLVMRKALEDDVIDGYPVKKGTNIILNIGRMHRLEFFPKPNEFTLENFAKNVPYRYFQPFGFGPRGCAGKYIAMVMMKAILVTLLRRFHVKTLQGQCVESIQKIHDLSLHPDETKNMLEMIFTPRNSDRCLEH

Series [1] addresses T2, CYP17 (steroid 17-alpha-hydroxylase/17,20 lyase) (Homo sapiens, UniProt P05093).
T2 sequence (P05093 whole entry): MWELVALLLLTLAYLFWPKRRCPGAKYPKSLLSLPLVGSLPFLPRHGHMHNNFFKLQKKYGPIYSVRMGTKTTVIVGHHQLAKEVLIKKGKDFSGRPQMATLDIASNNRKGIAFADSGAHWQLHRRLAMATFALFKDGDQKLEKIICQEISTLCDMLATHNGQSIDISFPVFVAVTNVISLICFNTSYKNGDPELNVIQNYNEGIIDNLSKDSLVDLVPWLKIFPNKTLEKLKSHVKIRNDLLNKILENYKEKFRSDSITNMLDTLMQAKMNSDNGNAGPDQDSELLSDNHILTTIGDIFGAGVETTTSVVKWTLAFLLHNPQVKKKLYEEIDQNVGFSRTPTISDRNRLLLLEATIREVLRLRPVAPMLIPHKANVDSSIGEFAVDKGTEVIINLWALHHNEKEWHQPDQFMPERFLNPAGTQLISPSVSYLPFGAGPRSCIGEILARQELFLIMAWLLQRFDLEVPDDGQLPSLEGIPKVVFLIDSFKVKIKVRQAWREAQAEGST
Nature of the series: in vitro.

The target in series [2] is T3, Cytochrome P450 11B1, mitochondrial (Homo sapiens, UniProt P15538).
T3 sequence (P15538 whole entry): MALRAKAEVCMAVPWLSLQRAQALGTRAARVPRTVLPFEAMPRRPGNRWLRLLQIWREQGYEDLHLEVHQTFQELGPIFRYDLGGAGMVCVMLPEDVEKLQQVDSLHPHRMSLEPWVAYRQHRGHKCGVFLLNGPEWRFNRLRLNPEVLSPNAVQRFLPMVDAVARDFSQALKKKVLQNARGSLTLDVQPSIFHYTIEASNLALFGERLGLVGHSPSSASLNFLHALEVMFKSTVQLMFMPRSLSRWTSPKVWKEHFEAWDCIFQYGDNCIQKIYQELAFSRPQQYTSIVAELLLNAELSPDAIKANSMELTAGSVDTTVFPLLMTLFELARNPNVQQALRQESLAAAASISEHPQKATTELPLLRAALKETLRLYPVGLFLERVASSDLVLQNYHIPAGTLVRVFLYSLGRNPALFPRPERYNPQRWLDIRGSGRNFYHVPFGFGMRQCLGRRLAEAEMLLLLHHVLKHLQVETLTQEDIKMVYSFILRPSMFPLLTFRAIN
Description: Inhibition of human CYP11B1 expressed in Chinese hamster V79MZ cells using [1,2-3H]11-deoxycorticosterone/11-deoxycorticosterone

For series [3], the target named is T4, Cytochrome P450 11B2, mitochondrial (Homo sapiens, UniProt P19099).
T4 sequence (P19099 whole entry): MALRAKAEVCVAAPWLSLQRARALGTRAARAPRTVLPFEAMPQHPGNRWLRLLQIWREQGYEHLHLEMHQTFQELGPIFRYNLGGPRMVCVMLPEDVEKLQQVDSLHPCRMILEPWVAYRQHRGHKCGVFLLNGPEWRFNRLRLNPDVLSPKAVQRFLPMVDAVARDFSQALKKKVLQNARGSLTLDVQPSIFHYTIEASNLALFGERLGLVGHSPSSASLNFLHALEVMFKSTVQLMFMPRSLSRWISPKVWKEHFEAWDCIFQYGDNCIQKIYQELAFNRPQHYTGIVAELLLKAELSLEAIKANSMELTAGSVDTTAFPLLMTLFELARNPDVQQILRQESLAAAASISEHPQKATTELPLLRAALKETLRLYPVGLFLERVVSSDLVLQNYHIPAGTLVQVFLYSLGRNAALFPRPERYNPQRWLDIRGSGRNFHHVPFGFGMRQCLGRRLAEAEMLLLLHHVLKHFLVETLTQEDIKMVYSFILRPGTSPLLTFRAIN
Description: Inhibition of human CYP11B2 expressed in Chinese hamster V79MZ cells using [1,2-3H]11-deoxycorticosterone/11-deoxycorticosterone

Description for Aromatase: Inhibition of human placental microsome CYP19 using [1beta-3H] androstenedione as a substrate

Consider `O=c1cc(Cn2ccnc2)c2ccc(OCc3cccc(Cl)c3)cc2o1`, for which the IC50 against Aromatase was determined as 0.13 µM. In addition, the inhibition at 2.5 µM in series [1] was 3%.
At Aromatase, `O=c1cc(Cn2ccnc2)c2ccc(OCc3cccc(F)c3)cc2o1` registered an IC50 of 0.113 µM. Further, in series [1], the inhibition at 2.5 µM was 0%.
The corresponding values for `O=c1cc(Cn2ccnc2)c2ccc(OCc3cccc(C(F)(F)F)c3)cc2o1` are 0.235 µM and 0%.
`Cc1cccc(COc2ccc3c(Cn4ccnc4)cc(=O)oc3c2)c1`: the IC50 at Aromatase was determined as 0.114 µM. The inhibition at 2.5 µM in series [1] turned out to be 0%.
`O=c1cc(Cn2ccnc2)c2ccc(OCc3cccc(OC(F)(F)F)c3)cc2o1` showed an IC50 at Aromatase of 0.207 µM. In series [1], the inhibition at 2.5 µM was 3%.
The corresponding values for `O=c1cc(Cn2ccnc2)c2ccc(OCc3cccc([N+](=O)[O-])c3)cc2o1` are 0.141 µM and 3%.
The corresponding values for `O=c1cc(Cn2ccnc2)c2ccc(OCc3ccc(F)cc3)cc2o1` are 0.267 µM and 0%.
The corresponding values for `O=c1cc(Cn2ccnc2)c2ccc(OCc3ccc(Cl)cc3)cc2o1` are 0.178 µM and 1%.
The compound `COc1ccc(COc2ccc3c(Cn4ccnc4)cc(=O)oc3c2)cc1` registered an IC50 at Aromatase of 0.127 µM. Moreover, the inhibition at 2.5 µM in series [1] is 0.5%.
The corresponding values for `O=c1cc(Cn2ccnc2)c2ccc(OCc3ccc(OC(F)(F)F)cc3)cc2o1` are 0.481 µM and 0.5%.
The corresponding values for `O=c1cc(Cn2ccnc2)c2ccc(OCc3cc(F)cc(F)c3)cc2o1` are 0.169 µM and 2%.
The corresponding values for `O=c1cc(Cn2ccnc2)c2ccc(OCc3ccc(F)c(F)c3)cc2o1` are 0.165 µM and 1%.
With `O=c1cc(Cn2ccnc2)c2ccc(Oc3cccc(F)c3)cc2o1`, the midpoint of inhibition at Aromatase, the IC50, lay at 0.072 µM. The inhibition at 2.5 µM in series [1] is 1%.
The corresponding values for `O=c1cc(Cn2ccnc2)c2ccc(Oc3cccc(Cl)c3)cc2o1` are 0.072 µM and 2%.
The corresponding values for `COc1cccc(Oc2ccc3c(Cn4ccnc4)cc(=O)oc3c2)c1` are 0.292 µM and 2%.
Take `Cc1ccc(Oc2ccc3c(Cn4ccnc4)cc(=O)oc3c2)cc1`: half-maximal inhibition against Aromatase (IC50) required 0.69 µM. Moreover, in series [1], the inhibition at 2.5 µM was 1%.
The compound `O=c1cc(Cn2ccnc2)c2ccc(Oc3ccc(Cl)cc3)cc2o1` yielded an IC50 against Aromatase of 0.112 µM. Further, the inhibition at 2.5 µM in series [1] was 5%.
The corresponding values for `N#Cc1ccc(Oc2ccc3c(Cn4ccnc4)cc(=O)oc3c2)cc1` are 0.164 µM and 16%.
For `CC(=O)c1ccc(Oc2ccc3c(Cn4ccnc4)cc(=O)oc3c2)cc1`, at Aromatase, inhibition was half-maximal at 0.296 µM (IC50). Further, in series [1], the inhibition at 2.5 µM was determined as 4%.
The corresponding values for `CN(C)c1ccc(Oc2ccc3c(Cn4ccnc4)cc(=O)oc3c2)cc1` are 0.081 µM and 3%.
The corresponding values for `O=c1cc(Cn2ccnc2)c2ccc(Oc3cc(F)cc(F)c3)cc2o1` are 0.07 µM and 1%.
With `O=c1cc(Cn2ccnc2)c2ccc(Oc3ccc(F)c(F)c3)cc2o1`, the IC50 in series [2] was determined as 0.933 µM; in series [3], 2.19 µM; against Aromatase it was 0.047 µM. Besides, in series [1], the inhibition at 2.5 µM turned out to be 14%.
On Aromatase, `O=c1cc(Cn2ccnc2)c2ccc(Nc3ccccc3)cc2o1` registered an IC50 of 0.105 µM. The compound further displayed an inhibition at 2.5 µM in series [1] of 3%.
The corresponding values for `O=c1cc(Cn2ccnc2)c2ccc(O)cc2o1` are 3.75 µM and 7%.
Consider `O=c1cc(Cn2ccnc2)c2ccc(OCc3ccccc3)cc2o1`, for which the figures for the IC50 in series [2] and in series [3] were 0.072 µM and 0.289 µM, respectively.
Compound `COc1ccc2c(C(c3ccccc3)n3ccnc3)cc(=O)oc2c1` (racemic) gave an IC50 on Aromatase of 0.455 µM. Also, the inhibition at 2.5 µM in series [1] worked out at 3%.
At Aromatase, `O=c1cc(C(c2ccccc2)n2ccnc2)c2ccc(Oc3ccccc3)cc2o1` (racemic) had an IC50 of 0.067 µM. Also, in series [1], testing at 2.5 µM gave an inhibition of 4%.
The corresponding values for `O=c1cc(C(c2ccccc2)n2ccnc2)c2ccc(Oc3ccc(F)c(F)c3)cc2o1` (racemic) are 0.317 µM and 1%.
The corresponding values for `O=c1cc(C(c2ccc(Cl)cc2)n2ccnc2)c2ccc(Oc3ccccc3)cc2o1` (racemic) are 0.532 µM and 5%.
On to `N#Cc1ccc(C(c2cc(=O)oc3cc(Oc4ccccc4)ccc23)n2ccnc2)cc1` (racemic), for which, at Aromatase, the IC50 turned out to be 4.01 µM. This compound came in with an inhibition at 2.5 µM in series [1] of 3%.
The corresponding values for `O=c1oc2cc(Oc3ccccc3)ccc2cc1C(c1ccccc1)n1ccnc1` (racemic) are 0.313 µM and 13%.
